In patent publication US10294229B2, “Heteroaryl substituted aminopyridine compounds” (BRISTOL-MYERS SQUIBB COMPANY, priority 2015, dated 2019):

Columns and labels:
IRAK4 = IRAK4 (Homo sapiens (Human), UniProt Q9NWZ3); assay: IRAK4 Inhibition Assay; assay type: biochemical; conditions: ATP 500 μM; IRAK4 0.6 nM
Procedure, shortened: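 Mobility-shift kinase assay: 0.6 nM IRAK4, 500 μM ATP, 1.5 μM fluorescent peptide, 60 min, room temperature. Percent inhibition was normalised between enzyme-free and DMSO-only wells.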

[1] = Caco-2 Permeability Assay; assay type: in vitro ADME; conditions: human, Caco-2, test compound 3 μM
Method: Caco-2 Permeability Assay
Thirteen to 27 days prior to assay, Caco-2 cells were seeded onto collagen-coated polycarbonate filter membranes in 24-well transwell plates at a density of 1.45×10^5 cells/cm^2, approximately 4.8×10^4 cells per well. The cells were grown in a culture medium consisting of DMEM supplemented with 10% fetal bovine serum, 10 mM HEPES, 1% nonessential amino acids, 2 mM L-glutamine, 100 U/mL penicillin-G, and 100 μg/mL streptomycin. The culture medium was replaced every 3 days and the cells were maintained at 37° C. in a 95% relative humidity and 5% CO2 atmosphere. The cells were evaluated for tight junction formation just prior to assay. The test compound was solubilized to 10 mM in 100% DMSO and diluted to 3 μM in assay buffer. Permeability studies were initiated by adding 200 μL assay buffer plus/minus compound to the apical transwell compartment and 600 μL assay buffer plus/minus compound to the basolateral compartment of the 24-well transwell low-binding cluster plate. For apical-to-basolateral (A to B) permeability (absorptive direction), buffer containing compound was placed in the apical compartment (donor wells), while buffer alone was placed in the corresponding basolateral compartments (receiver wells). For basolateral-to-apical (B to A) permeability (secretive direction), buffer containing compound was placed in the basolateral compartment (donor wells), while buffer alone was placed in the corresponding apical compartments (receiver wells). Transwells were then incubated for 2 hours at 37° C. in a 95% relative humidity and 5% CO2 atmosphere with gentle agitation. Following incubation, 100 μL was removed from each apical and basolateral compartment and transferred to 96-well low binding plates that had been previously loaded with 100 μL/well of acetonitrile containing 250 nM propranolol, 250 nM diclofenac, and 500 nM tolbutamide as internal standards. The samples were subsequently analyzed by LC-MS/MS to determine concentrations of compound.

[2] = test system: Human whole blood stimulated with a TLR2 agonist (lipoteichoic acid), IL-6 levels; assay: IRAK4 Whole Blood Assay; assay type: cell-based; conditions: Homo sapiens, lipoteichoic acid 10 μg/mL
Procedure, shortened: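 IL-6 was quantified by cytometric bead assay in supernatants of human blood (ACD-A) stimulated for 5 h with lipoteichoic acid at 10 μg/mL final. Compound exposure preceded stimulation for 60 min at 37 °C, 5% CO2.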

Sequence of IRAK4 (Q9NWZ3 whole entry, species assumed): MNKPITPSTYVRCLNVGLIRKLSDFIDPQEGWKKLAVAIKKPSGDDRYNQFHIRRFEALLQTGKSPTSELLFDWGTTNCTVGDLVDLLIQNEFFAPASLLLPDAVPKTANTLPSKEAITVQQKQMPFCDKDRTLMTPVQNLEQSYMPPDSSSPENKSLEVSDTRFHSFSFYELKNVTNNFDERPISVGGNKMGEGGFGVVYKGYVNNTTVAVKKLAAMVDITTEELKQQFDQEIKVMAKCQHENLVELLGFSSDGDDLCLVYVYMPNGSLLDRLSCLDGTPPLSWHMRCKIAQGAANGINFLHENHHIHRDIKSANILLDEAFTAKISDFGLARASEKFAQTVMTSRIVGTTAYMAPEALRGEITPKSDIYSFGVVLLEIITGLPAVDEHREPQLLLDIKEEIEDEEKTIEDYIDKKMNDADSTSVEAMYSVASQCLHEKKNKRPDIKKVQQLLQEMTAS

Row | Compound | IC50 (IRAK4) | Papp at 2 h, 3 µM [1] | EC50 [2]
1 | N#Cc1cnc2c(cnn2-c2cc(NC3CC3)c(-c3cn([C@@H]4CNCC[C@H]4O)nn3)cn2)c1 (relative stereo) [Example 207, 1-(4-(cyclopropylamino)-5-(1-((trans)-4-hydroxypiperidin-3-yl)-1H-1,2,3-triazol-4-yl)pyridin-2-yl)-1H-pyrazolo[3,4-b]pyridine-5-carbonitrile] | – | < 1.5 ×10⁻⁶ cm/s | 1330 nM
2 | CCCn1cc(-c2cnc(-n3cnc4cc(C#N)cnc43)cc2Nc2cnn(CC)c2)nn1 [Example 59] | – | 20 ×10⁻⁶ cm/s | –
3 | CCCc1cn(-c2cnc(-n3cnc4cc(C#N)cnc43)cc2NC(C)C)nn1 [Example 278, 3-(4-(isopropylamino)-5-(4-propyl-1H-1,2,3-triazol-1-yl)pyridin-2-yl)-3H-imidazo[4,5-b]pyridine-6-carbonitrile] | 15 nM | 23.7 ×10⁻⁶ cm/s | –
4 | CCNC1CCC(c2cn(-c3cnc(-n4ncc5cc(C#N)cnc54)cc3NC(C)C)nn2)CC1 (centres unmarked) [Example 356, 1-(5-(4-((1s,4s)-4-(ethylamino)cyclohexyl)-1H-1,2,3-triazol-1-yl)-4-(isopropylamino)pyridin-2-yl)-1H-pyrazolo[3,4-b]pyridine-5-carbonitrile] | – | < 1.5 ×10⁻⁶ cm/s | 270 nM
5 | CC(C)(O)CCc1cn(-c2cnc(-n3ncc4cc(C#N)cnc43)cc2NC2COC2)nn1 [Example 359, 1-(5-(4-(3-hydroxy-3-methylbutyl)-1H-1,2,3-triazol-1-yl)-4-(oxetan-3-ylamino)pyridin-2-yl)-1H-pyrazolo[3,4-b]pyridine-5-carbonitrile] | – | < 1.5 ×10⁻⁶ cm/s | 220 nM
6 | CC(C)Nc1cc(-n2ncc3cc(C#N)cnc32)ncc1-n1cc(C2CCN(C(=O)CC(C)(C)O)CC2)nn1 [Example 360, 1-(5-(4-(1-(3-hydroxy-3-methylbutanoyl)piperidin-4-yl)-1H-1,2,3-triazol-1-yl)-4-(isopropylamino)pyridin-2-yl)-1H-pyrazolo[3,4-b]pyridine-5-carbonitrile] | – | 3.6 ×10⁻⁶ cm/s | 310 nM
7 | CC(C)(O)CCc1cn(-c2cnc(-n3ncc4cc(C#N)cnc43)cc2NC2CCC(F)CC2)nn1 (centres unmarked) [Example 374, 1-(4-(((1r,4r)-4-fluorocyclohexyl)amino)-5-(4-(3-hydroxy-3-methylbutyl)-1H-1,2,3-triazol-1-yl)pyridin-2-yl)-1H-pyrazolo[3,4-b]pyridine-5-carbonitrile] | – | 3.2 ×10⁻⁶ cm/s | 380 nM
8 | CC(=O)NC1CCC(c2cc(-c3cnc(-n4ncc5cc(C#N)cnc54)cc3NC(C)C)on2)CC1 (centres unmarked) [Example 410, N-((1s,4s)-4-(5-(6-(5-cyano-1H-pyrazolo[3,4-b]pyridin-1-yl)-4-(isopropylamino)pyridin-3-yl)isoxazol-3-yl)cyclohexyl)acetamide] | – | 14.8 ×10⁻⁶ cm/s | 300 nM
9 | COC(=O)NC1CCC(c2cc(-c3cnc(-n4ncc5cc(C#N)cnc54)cc3NC(C)C)on2)CC1 (centres unmarked) [Example 411, methyl ((1s,4s)-4-(5-(6-(5-cyano-1H-pyrazolo[3,4-b]pyridin-1-yl)-4-(isopropylamino)pyridin-3-yl)isoxazol-3-yl)cyclohexyl)carbamate] | – | 26.9 ×10⁻⁶ cm/s | 430 nM
10 | CC(C)Nc1cc(-n2ncc3cc(C#N)cnc32)ncc1-c1cc(C2CCOCC2)no1 [Example 418, 1-(4-(isopropylamino)-5-(3-(tetrahydro-2H-pyran-4-yl)isoxazol-5-yl)pyridin-2-yl)-1H-pyrazolo[3,4-b]pyridine-5-carbonitrile] | 3 nM | – | 490 nM
11 | CC(C)Nc1cc(-n2ncc3cc(C#N)cnc32)ncc1-c1cc([C@@H]2CCCCN2S(C)(=O)=O)on1 [Example 432, (S)-1-(4-(isopropylamino)-5-(5-(1-(methylsulfonyl)piperidin-2-yl)isoxazol-3-yl)pyridin-2-yl)-1H-pyrazolo[3,4-b]pyridine-5-carbonitrile] | 1 nM | – | 370 nM
12 | CC(C)Nc1cc(-n2ncc3cc(C#N)cnc32)ncc1-c1nnc(N[C@H]2CC[C@H](N)CC2)o1 [Example 434, 1-(5-(5-(((1R,4R)-4-aminocyclohexyl)amino)-1,3,4-oxadiazol-2-yl)-4-(isopropylamino)pyridin-2-yl)-1H-pyrazolo[3,4-b]pyridine-5-carbonitrile] | 4 nM | – | 330 nM
13 | CC(C)(O)CCC1CC(c2cnc(-n3ncc4cc(C#N)cnc43)cc2NCC(F)F)=NO1 (centres unmarked) [Example 442, 1-(4-((2,2-difluoroethyl)amino)-5-(5-(3-hydroxy-3-methylbutyl)-4,5-dihydroisoxazol-3-yl)pyridin-2-yl)-1H-pyrazolo[3,4-b]pyridine-5-carbonitrile] | 4 nM | – | 410 nM

Further lines, results first:

Row | IC50 (IRAK4) | Papp at 2 h, 3 µM [1] | EC50 [2] | Compound
14 | 5 nM | 14.8 ×10⁻⁶ cm/s | – | CC(C)Nc1cc(-n2ncc3cc(C#N)cnc32)ncc1-c1cn([C@@H]2CCCC[C@@]2(C)O)nn1 (relative stereo) [Example 64, 1-(5-(1-((1R,2R)-2-hydroxy-2-methylcyclohexyl)-1H-1,2,3-triazol-4-yl)-4-(isopropylamino)pyridin-2-yl)-1H-pyrazolo[3,4-b]pyridine-5-carbonitrile]
15 | – | 2.4 ×10⁻⁶ cm/s | 490 nM | CC(C)Nc1cc(-n2ncc3cc(C#N)cnc32)ncc1-c1cn([C@@H]2CCNC[C@@H]2F)nn1 (relative stereo) [Example 209, 1-(5-(1-((cis)-3-fluoropiperidin-4-yl)-1H-1,2,3-triazol-4-yl)-4-(isopropylamino)pyridin-2-yl)-1H-pyrazolo[3,4-b]pyridine-5-carbonitrile]
16 | – | 31.9 ×10⁻⁶ cm/s | 290 nM | COC(=O)NCC1CC(c2cnc(-n3ncc4cc(C#N)cnc43)cc2NC(C)C)=NO1 (single isomer, unassigned) [Example 436, Methyl ((3-(6-(5-cyano-1H-pyrazolo[3,4-b]pyridin-1-yl)-4-(isopropylamino)pyridin-3-yl)-4,5-dihydroisoxazol-5-yl)methyl)carbamate]
17 | 3 nM | 27.8 ×10⁻⁶ cm/s | – | CCCn1cc(-c2cnc(-n3cnc4cc(C#N)cnc43)cc2NC(C)C)nn1 [Example 40, 3-(4-(isopropylamino)-5-(1-propyl-1H-1,2,3-triazol-4-yl)pyridin-2-yl)-3H-imidazo[4,5-b]pyridine-6-carbonitrile]
18 | 5 nM | 5.7 ×10⁻⁶ cm/s | – | CC(C)Nc1cc(-n2cnc3cc(C#N)cnc32)ncc1-c1cn(CCC(F)(F)F)nn1 [Example 42, 3-(4-(isopropylamino)-5-(1-(3,3,3-trifluoropropyl)-1H-1,2,3-triazol-4-yl)pyridin-2-yl)-3H-imidazo[4,5-b]pyridine-6-carbonitrile]
19 | 16 nM | 5.9 ×10⁻⁶ cm/s | – | CC(C)Nc1cc(-n2ncc3cc(C#N)cnc32)ncc1-c1cn(C[C@@H](C)O)nn1 [Example 66, (R)-1-(5-(1-(2-hydroxypropyl)-1H-1,2,3-triazol-4-yl)-4-(isopropylamino)pyridin-2-yl)-1H-pyrazolo[3,4-b]pyridine-5-carbonitrile]
20 | – | 17.9 ×10⁻⁶ cm/s | 270 nM | CC(C)Nc1cc(-n2ncc3cc(C#N)cnc32)ncc1-c1cn(C2CN(CC(F)F)C2)nn1 [Example 153]
21 | 13 nM | < 1.5 ×10⁻⁶ cm/s | – | CC(C)Nc1cc(-n2ncc3cc(C#N)cnc32)ncc1-c1cn([C@H]2CCNC[C@H]2O)nn1 [Example 177, 1-(5-(1-((3R,4S)-3-hydroxypiperidin-4-yl)-1H-1,2,3-triazol-4-yl)-4-(isopropylamino)pyridin-2-yl)-1H-pyrazolo[3,4-b]pyridine-5-carbonitrile]
22 | 1 nM | – | 340 nM | CC(C)Nc1cc(-n2ncc3cc(C#N)cnc32)ncc1-c1cc(CCC(C)(C)O)no1 [Example 426, 1-(5-(3-(3-hydroxy-3-methylbutyl)isoxazol-5-yl)-4-(isopropylamino)pyridin-2-yl)-1H-pyrazolo[3,4-b]pyridine-5-carbonitrile]
23 | 2 nM | – | 450 nM | CC(C)Nc1cc(-n2ncc3cc(C#N)cnc32)ncc1-c1cc(CCC(C)(C)O)on1 [Example 429, 1-(5-(5-(3-hydroxy-3-methylbutyl)isoxazol-3-yl)-4-(isopropylamino)pyridin-2-yl)-1H-pyrazolo[3,4-b]pyridine-5-carbonitrile]
24 | 2 nM | – | 210 nM | CC(C)Nc1cc(-n2ncc3cc(C#N)cnc32)ncc1C1=NOC(CCC(C)(C)O)C1 (centres unmarked) [Example 437, 1-(5-(5-(3-hydroxy-3-methylbutyl)-4,5-dihydroisoxazol-3-yl)-4-(isopropylamino)pyridin-2-yl)-1H-pyrazolo[3,4-b]pyridine-5-carbonitrile]
